Experimental data reported in PubChem BioAssay (NCI).
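Cultured in 96-well plates, cells were exposed to test compound for 48 hours across five concentrations. TGI is the concentration that stops growth completely.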

The molecules below were run on DMS 114 small cell lung (assay: growth of human tumour cells (NCI), 48 h).
With `CCOP(=S)(OCC)Oc1ccc2c(c1)OC(=O)C1(Cl)C2(C)C2(Cl)C(=O)Oc3cc(OP(=S)(OCC)OCC)ccc3C12C` (centres undefined) the TGI was 30 µM.
For `CCCCC1CC(c2ccc(Cl)cc2)=NO1` (centres undefined), the TGI was over 100 µM.

Each molecule was assayed on M14 melanoma (assay: growth of human tumour cells (NCI), 48 h).
With `N#Cc1c2c(c(Cl)n3c1nc1ccccc13)CCCC2` the TGI was 11.3 µM.
Work on `O=Cc1c(O)ccc2ccc(O)c(-c3c(O)ccc4ccc(O)cc34)c12` yielded a TGI of over 100 µM.
For `COc1ccc(/C=C/C(=O)C(C)(C)C)cc1OC`, the TGI was over 100 µM.
For `CCOP(=S)(OCC)Oc1ccc2c(c1)OC(=O)C1(Cl)C2(C)C2(Cl)C(=O)Oc3cc(OP(=S)(OCC)OCC)ccc3C12C` (centres undefined), the TGI was 33.7 µM.
Molecule `CCCCC1CC(c2ccc(Cl)cc2)=NO1` (centres undefined) has a TGI of over 100 µM.

These molecules were tested on SK-MEL-2 melanoma (assay: growth of human tumour cells (NCI), 48 h).
Molecule `N#Cc1c2c(c(Cl)n3c1nc1ccccc13)CCCC2` has a TGI of 8.34 µM.
Work on `O=Cc1c(O)ccc2ccc(O)c(-c3c(O)ccc4ccc(O)cc34)c12` yielded a TGI of over 100 µM.
`CCOP(=S)(OCC)Oc1ccc2c(c1)OC(=O)C1(Cl)C2(C)C2(Cl)C(=O)Oc3cc(OP(=S)(OCC)OCC)ccc3C12C` (centres undefined) gave a TGI of 42.3 µM.
`CCCCC1CC(c2ccc(Cl)cc2)=NO1` (centres undefined) was tested, and the TGI was over 100 µM.

What follows are molecules tested on A498 renal (assay: growth of human tumour cells (NCI), 48 h).
With `N#Cc1c2c(c(Cl)n3c1nc1ccccc13)CCCC2` the TGI was 23.8 µM.
`O=Cc1c(O)ccc2ccc(O)c(-c3c(O)ccc4ccc(O)cc34)c12` was tested, and the TGI was over 100 µM.
`COc1ccc(/C=C/C(=O)C(C)(C)C)cc1OC` was tested, and the TGI was over 100 µM.
`CCOP(=S)(OCC)Oc1ccc2c(c1)OC(=O)C1(Cl)C2(C)C2(Cl)C(=O)Oc3cc(OP(=S)(OCC)OCC)ccc3C12C` (centres undefined) gave a TGI of 63.7 µM.
Molecule `CCCCC1CC(c2ccc(Cl)cc2)=NO1` (centres undefined) has a TGI of over 100 µM.

Each molecule was assayed on RXF 393 renal (assay: growth of human tumour cells (NCI), 48 h).
`N#Cc1c2c(c(Cl)n3c1nc1ccccc13)CCCC2` was tested, and the TGI was 0.904 µM.
`O=Cc1c(O)ccc2ccc(O)c(-c3c(O)ccc4ccc(O)cc34)c12` gave a TGI of over 100 µM.
`CCOP(=S)(OCC)Oc1ccc2c(c1)OC(=O)C1(Cl)C2(C)C2(Cl)C(=O)Oc3cc(OP(=S)(OCC)OCC)ccc3C12C` (centres undefined) showed a TGI of 25.8 µM.

The molecules below were run on U251 CNS (assay: growth of human tumour cells (NCI), 48 h).
For `N#Cc1c2c(c(Cl)n3c1nc1ccccc13)CCCC2`, the TGI was 11.8 µM.
Work on `O=Cc1c(O)ccc2ccc(O)c(-c3c(O)ccc4ccc(O)cc34)c12` yielded a TGI of over 100 µM.
`COc1ccc(/C=C/C(=O)C(C)(C)C)cc1OC` gave a TGI of over 100 µM.
In the case of `CCOP(=S)(OCC)Oc1ccc2c(c1)OC(=O)C1(Cl)C2(C)C2(Cl)C(=O)Oc3cc(OP(=S)(OCC)OCC)ccc3C12C` (centres undefined), the TGI is reported as 20 µM.
For `CCCCC1CC(c2ccc(Cl)cc2)=NO1` (centres undefined), the TGI was over 100 µM.

The molecules below were run on UO-31 renal (assay: growth of human tumour cells (NCI), 48 h).
`N#Cc1c2c(c(Cl)n3c1nc1ccccc13)CCCC2` was tested, and the TGI was 12.8 µM.
Work on `O=Cc1c(O)ccc2ccc(O)c(-c3c(O)ccc4ccc(O)cc34)c12` yielded a TGI of over 100 µM.
Work on `COc1ccc(/C=C/C(=O)C(C)(C)C)cc1OC` yielded a TGI of over 100 µM.
In the case of `CCOP(=S)(OCC)Oc1ccc2c(c1)OC(=O)C1(Cl)C2(C)C2(Cl)C(=O)Oc3cc(OP(=S)(OCC)OCC)ccc3C12C` (centres undefined), the TGI is reported as 33.7 µM.
`CCCCC1CC(c2ccc(Cl)cc2)=NO1` (centres undefined) was tested, and the TGI was over 100 µM.

These molecules were tested on HOP-62 NSCLC (assay: growth of human tumour cells (NCI), 48 h).
`O=Cc1c(O)ccc2ccc(O)c(-c3c(O)ccc4ccc(O)cc34)c12` was tested, and the TGI was over 100 µM.
With `COc1ccc(/C=C/C(=O)C(C)(C)C)cc1OC` the TGI was over 100 µM.
With `CCOP(=S)(OCC)Oc1ccc2c(c1)OC(=O)C1(Cl)C2(C)C2(Cl)C(=O)Oc3cc(OP(=S)(OCC)OCC)ccc3C12C` (centres undefined) the TGI was 40.3 µM.
`CCCCC1CC(c2ccc(Cl)cc2)=NO1` (centres undefined) showed a TGI of over 100 µM.

Each molecule was assayed on MOLT-4 leukemia (assay: growth of human tumour cells (NCI), 48 h).
`N#Cc1c2c(c(Cl)n3c1nc1ccccc13)CCCC2` showed a TGI of 24.8 µM.
In the case of `O=Cc1c(O)ccc2ccc(O)c(-c3c(O)ccc4ccc(O)cc34)c12`, the TGI is reported as over 100 µM.
With `COc1ccc(/C=C/C(=O)C(C)(C)C)cc1OC` the TGI was over 100 µM.
For `CCOP(=S)(OCC)Oc1ccc2c(c1)OC(=O)C1(Cl)C2(C)C2(Cl)C(=O)Oc3cc(OP(=S)(OCC)OCC)ccc3C12C` (centres undefined), the TGI was 66.6 µM.
With `CCCCC1CC(c2ccc(Cl)cc2)=NO1` (centres undefined) the TGI was over 100 µM.

These molecules were tested on HOP-18 NSCLC (assay: growth of human tumour cells (NCI), 48 h).
`O=Cc1c(O)ccc2ccc(O)c(-c3c(O)ccc4ccc(O)cc34)c12` was tested, and the TGI was over 100 µM.
In the case of `CCCCC1CC(c2ccc(Cl)cc2)=NO1` (centres undefined), the TGI is reported as over 100 µM.

What follows are molecules tested on TK-10 renal (assay: growth of human tumour cells (NCI), 48 h).
`N#Cc1c2c(c(Cl)n3c1nc1ccccc13)CCCC2` gave a TGI of 6.68 µM.
Work on `O=Cc1c(O)ccc2ccc(O)c(-c3c(O)ccc4ccc(O)cc34)c12` yielded a TGI of over 100 µM.
Work on `COc1ccc(/C=C/C(=O)C(C)(C)C)cc1OC` yielded a TGI of over 100 µM.
In the case of `CCOP(=S)(OCC)Oc1ccc2c(c1)OC(=O)C1(Cl)C2(C)C2(Cl)C(=O)Oc3cc(OP(=S)(OCC)OCC)ccc3C12C` (centres undefined), the TGI is reported as 61.8 µM.
In the case of `CCCCC1CC(c2ccc(Cl)cc2)=NO1` (centres undefined), the TGI is reported as over 100 µM.

What follows are molecules tested on DMS 273 small cell lung (assay: growth of human tumour cells (NCI), 48 h).
With `N#Cc1c2c(c(Cl)n3c1nc1ccccc13)CCCC2` the TGI was 3.74 µM.
Molecule `O=Cc1c(O)ccc2ccc(O)c(-c3c(O)ccc4ccc(O)cc34)c12` has a TGI of over 100 µM.
Molecule `CCOP(=S)(OCC)Oc1ccc2c(c1)OC(=O)C1(Cl)C2(C)C2(Cl)C(=O)Oc3cc(OP(=S)(OCC)OCC)ccc3C12C` (centres undefined) has a TGI of 38.1 µM.
For `CCCCC1CC(c2ccc(Cl)cc2)=NO1` (centres undefined), the TGI was over 100 µM.

These molecules were tested on OVCAR-4 ovarian (assay: growth of human tumour cells (NCI), 48 h).
With `N#Cc1c2c(c(Cl)n3c1nc1ccccc13)CCCC2` the TGI was 16.7 µM.
In the case of `O=Cc1c(O)ccc2ccc(O)c(-c3c(O)ccc4ccc(O)cc34)c12`, the TGI is reported as over 100 µM.
Molecule `COc1ccc(/C=C/C(=O)C(C)(C)C)cc1OC` has a TGI of over 100 µM.
`CCOP(=S)(OCC)Oc1ccc2c(c1)OC(=O)C1(Cl)C2(C)C2(Cl)C(=O)Oc3cc(OP(=S)(OCC)OCC)ccc3C12C` (centres undefined) was tested, and the TGI was 24.4 µM.
In the case of `CCCCC1CC(c2ccc(Cl)cc2)=NO1` (centres undefined), the TGI is reported as over 100 µM.

The molecules below were run on SK-MEL-5 melanoma (assay: growth of human tumour cells (NCI), 48 h).
`N#Cc1c2c(c(Cl)n3c1nc1ccccc13)CCCC2` gave a TGI of 3.26 µM.
`O=Cc1c(O)ccc2ccc(O)c(-c3c(O)ccc4ccc(O)cc34)c12` gave a TGI of over 100 µM.
`COc1ccc(/C=C/C(=O)C(C)(C)C)cc1OC` gave a TGI of over 100 µM.
In the case of `CCOP(=S)(OCC)Oc1ccc2c(c1)OC(=O)C1(Cl)C2(C)C2(Cl)C(=O)Oc3cc(OP(=S)(OCC)OCC)ccc3C12C` (centres undefined), the TGI is reported as 31.7 µM.
`CCCCC1CC(c2ccc(Cl)cc2)=NO1` (centres undefined) was tested, and the TGI was over 100 µM.

The molecules below were run on XF 498 CNS (assay: growth of human tumour cells (NCI), 48 h).
With `N#Cc1c2c(c(Cl)n3c1nc1ccccc13)CCCC2` the TGI was 5.29 µM.
Work on `COc1ccc(/C=C/C(=O)C(C)(C)C)cc1OC` yielded a TGI of over 100 µM.
`CCOP(=S)(OCC)Oc1ccc2c(c1)OC(=O)C1(Cl)C2(C)C2(Cl)C(=O)Oc3cc(OP(=S)(OCC)OCC)ccc3C12C` (centres undefined) was tested, and the TGI was 36.2 µM.

Each molecule was assayed on SNB-78 CNS (assay: growth of human tumour cells (NCI), 48 h).
With `N#Cc1c2c(c(Cl)n3c1nc1ccccc13)CCCC2` the TGI was 15.9 µM.
Work on `O=Cc1c(O)ccc2ccc(O)c(-c3c(O)ccc4ccc(O)cc34)c12` yielded a TGI of over 100 µM.
